Experiments:
ROCK2 = ROCK2 (Homo sapiens (Human), UniProt O75116); test: ROCK assay (LABCHIP peptide phosphorylation), ROCK2; assay type: biochemical; settings: 5 μM ATP, 1.5 μM peptide substrate
ROCK1 = ROCK1 (Homo sapiens (Human), UniProt Q13464); test: ROCK assay (LABCHIP peptide phosphorylation), ROCK1; assay type: biochemical; settings: 5 μM ATP, 1.5 μM peptide substrate; read-out: ROCK1 IC50
ROCK1, sequence (Q13464 whole entry, species assumed): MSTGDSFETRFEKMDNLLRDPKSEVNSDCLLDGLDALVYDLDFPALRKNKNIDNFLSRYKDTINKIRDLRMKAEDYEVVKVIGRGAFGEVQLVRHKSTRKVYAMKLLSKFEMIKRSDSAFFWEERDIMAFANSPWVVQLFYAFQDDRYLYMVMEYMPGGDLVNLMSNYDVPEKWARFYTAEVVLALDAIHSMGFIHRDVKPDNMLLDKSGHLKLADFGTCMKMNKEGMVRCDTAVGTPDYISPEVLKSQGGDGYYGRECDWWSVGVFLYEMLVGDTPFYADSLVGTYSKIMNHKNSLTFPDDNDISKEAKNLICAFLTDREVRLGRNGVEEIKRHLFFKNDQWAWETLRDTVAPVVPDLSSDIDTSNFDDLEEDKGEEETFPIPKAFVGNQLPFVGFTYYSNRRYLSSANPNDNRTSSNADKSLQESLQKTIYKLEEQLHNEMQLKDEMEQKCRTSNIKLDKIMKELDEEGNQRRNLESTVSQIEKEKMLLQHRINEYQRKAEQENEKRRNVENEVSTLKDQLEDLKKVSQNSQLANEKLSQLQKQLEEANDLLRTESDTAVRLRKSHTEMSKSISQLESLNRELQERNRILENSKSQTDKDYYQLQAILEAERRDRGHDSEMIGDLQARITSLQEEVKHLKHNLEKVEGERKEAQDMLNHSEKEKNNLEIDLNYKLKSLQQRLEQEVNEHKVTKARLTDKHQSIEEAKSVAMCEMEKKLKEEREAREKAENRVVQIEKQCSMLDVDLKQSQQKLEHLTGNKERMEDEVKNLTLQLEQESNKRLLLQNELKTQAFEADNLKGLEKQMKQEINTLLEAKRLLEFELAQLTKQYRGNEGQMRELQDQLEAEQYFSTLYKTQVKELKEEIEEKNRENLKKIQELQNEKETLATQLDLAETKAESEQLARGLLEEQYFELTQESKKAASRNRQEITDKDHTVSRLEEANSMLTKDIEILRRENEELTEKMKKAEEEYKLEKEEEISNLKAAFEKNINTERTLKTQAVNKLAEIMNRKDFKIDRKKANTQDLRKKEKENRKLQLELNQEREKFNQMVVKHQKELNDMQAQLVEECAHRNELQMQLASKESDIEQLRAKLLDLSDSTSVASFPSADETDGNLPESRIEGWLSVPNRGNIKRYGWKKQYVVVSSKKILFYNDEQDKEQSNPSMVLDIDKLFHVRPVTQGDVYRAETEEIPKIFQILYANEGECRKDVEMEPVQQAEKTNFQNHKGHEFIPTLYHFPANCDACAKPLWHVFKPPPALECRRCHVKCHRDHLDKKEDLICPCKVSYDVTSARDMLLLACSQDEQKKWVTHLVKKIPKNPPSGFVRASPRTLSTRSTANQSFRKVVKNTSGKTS

ROCK2, sequence (O75116 whole entry, species assumed): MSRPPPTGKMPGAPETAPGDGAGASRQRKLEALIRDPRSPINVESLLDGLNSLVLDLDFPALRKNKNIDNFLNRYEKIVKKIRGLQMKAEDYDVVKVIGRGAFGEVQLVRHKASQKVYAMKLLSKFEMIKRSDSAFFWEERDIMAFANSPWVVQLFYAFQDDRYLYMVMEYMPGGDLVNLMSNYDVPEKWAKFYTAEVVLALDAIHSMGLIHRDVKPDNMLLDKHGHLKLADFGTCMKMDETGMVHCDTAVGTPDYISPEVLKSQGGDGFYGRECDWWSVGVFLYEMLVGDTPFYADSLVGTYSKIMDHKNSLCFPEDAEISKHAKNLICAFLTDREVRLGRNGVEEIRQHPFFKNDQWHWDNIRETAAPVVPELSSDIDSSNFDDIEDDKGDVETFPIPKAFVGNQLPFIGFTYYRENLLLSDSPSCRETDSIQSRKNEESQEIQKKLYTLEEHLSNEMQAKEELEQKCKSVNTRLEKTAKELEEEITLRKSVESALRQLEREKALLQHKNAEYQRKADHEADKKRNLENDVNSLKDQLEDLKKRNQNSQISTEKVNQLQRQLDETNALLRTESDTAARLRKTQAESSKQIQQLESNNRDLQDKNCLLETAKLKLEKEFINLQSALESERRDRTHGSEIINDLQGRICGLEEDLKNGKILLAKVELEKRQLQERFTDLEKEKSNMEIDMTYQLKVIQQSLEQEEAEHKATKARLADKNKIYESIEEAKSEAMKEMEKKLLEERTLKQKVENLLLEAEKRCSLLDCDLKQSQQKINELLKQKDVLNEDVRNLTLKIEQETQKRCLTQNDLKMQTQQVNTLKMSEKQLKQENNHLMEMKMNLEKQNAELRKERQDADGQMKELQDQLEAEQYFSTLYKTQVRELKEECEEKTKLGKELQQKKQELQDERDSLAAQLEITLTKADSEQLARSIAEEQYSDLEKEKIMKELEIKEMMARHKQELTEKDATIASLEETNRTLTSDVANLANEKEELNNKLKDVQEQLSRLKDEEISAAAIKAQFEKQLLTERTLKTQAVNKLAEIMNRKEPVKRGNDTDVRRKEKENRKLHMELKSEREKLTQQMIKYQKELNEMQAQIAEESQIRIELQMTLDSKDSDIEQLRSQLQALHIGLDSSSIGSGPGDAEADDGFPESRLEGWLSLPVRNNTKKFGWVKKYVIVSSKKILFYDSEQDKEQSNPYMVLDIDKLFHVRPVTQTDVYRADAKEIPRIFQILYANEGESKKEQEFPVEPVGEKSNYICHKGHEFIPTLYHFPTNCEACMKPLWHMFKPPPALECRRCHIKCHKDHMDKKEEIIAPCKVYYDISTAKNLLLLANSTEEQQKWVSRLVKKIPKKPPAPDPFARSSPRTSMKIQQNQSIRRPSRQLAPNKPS

| Structure (SMILES) | IC50 (ROCK2) [nM] | IC50 (ROCK1) [nM] | IC50 (ROCK2; given as number) [nM] |
| --- | --- | --- | --- |
| CN(C)C(=O)c1ccc2c(c1)N(C(=O)Cc1ccc(-c3n[nH]c(=O)c4ccccc34)cc1)CC2 [Example 291, N,N-dimethyl-1-{2-[4-(4-oxo-3,4-dihydrophthalazin-1-yl)phenyl]acetyl}-2,3-dihydro-1H-indole-6-carboxamide] | 0.1 to 100 | 101 to 1000 | – |
| O=C(Nc1ccc(-c2n[nH]c(=O)c3ccccc23)cc1)c1cnn(-c2ccccc2)c1Cl [Example 199, 5-chloro-N-[4-(4-oxo-3,4-dihydrophthalazin-1-yl)phenyl]-1-phenyl-1H-pyrazole-4-carboxamide] | 0.1 to 100 | 0.1 to 100 | – |
| Cc1cc(NC(=O)Cc2ccc(-c3n[nH]c(=O)c4ccccc34)cc2)no1 [Example 27, N-(5-methyl-1,2-oxazol-3-yl)-2-[4-(4-oxo-3,4-dihydrophthalazin-1-yl)phenyl]acetamide] | 0.1 to 100 | 1000 to 50000 | – |
| CCOc1ccc2oc(C)c(C(=O)Nc3ccc(-c4n[nH]c(=O)c5ccccc45)cc3)c2c1 [Example 100, 5-ethoxy-2-methyl-N-[4-(4-oxo-3,4-dihydrophthalazin-1-yl)phenyl]-1-benzofuran-3-carboxamide] | 0.1 to 100 | 0.1 to 100 | – |
| O=C(Cc1ccc(-c2n[nH]c(=O)c3ccccc23)cc1)N[C@@H]1CCc2ccccc21 [Example 81, (R)—N-(2,3-Dihydro-1H-inden-1-yl)-2-(4-(4-oxo-3,4-dihydrophthalazin-1-yl)phenyl)acetamide] | 101 to 1000 | 1000 to 50000 | – |
| CC(C)(C)n1cc(C(=O)Nc2ccc(-c3n[nH]c(=O)c4ccccc34)cc2)cn1 [Example 381, 1-(tert-Butyl)-N-(4-(4-oxo-3,4-dihydrophthalazin-1-yl)phenyl)-1H-pyrazole-4-carboxamide] | 0.1 to 100 | 0.1 to 100 | – |
| O=C(Nc1ccc(-c2n[nH]c(=O)c3ccccc23)cc1)c1nn(CC(O)COCc2ccccc2)c2ccccc12 (stereo not drawn) [Example 147, 1-[3-(benzyloxy)-2-hydroxypropyl]-N-[4-(4-oxo-3,4-dihydrophthalazin-1-yl)phenyl]-1H-indazole-3-carboxamide] | 0.1 to 100 | 0.1 to 100 | – |
| Cc1nc(C(=O)Nc2ccc(-c3n[nH]c(=O)c4ccccc34)cc2)c[nH]1 [Example 242, 2-methyl-N-[4-(4-oxo-3,4-dihydrophthalazin-1-yl)phenyl]-1H-imidazole-4-carboxamide] | 0.1 to 100 | 101 to 1000 | – |
| O=C(Cc1ccc(-c2n[nH]c(=O)c3ccccc23)cc1)N1CCc2ccc(OCCN3CCCC3)cc21 [Example 286, 4-[4-(2-oxo-2-{6-[2-(pyrrolidin-1-yl)ethoxy]-2,3-dihydro-1H-indol-1-yl}ethyl)phenyl]-1,2-dihydrophthalazin-1-one] | 0.1 to 100 | 101 to 1000 | – |
| Cc1cc(C(=O)Nc2ccc(-c3n[nH]c(=O)c4ccccc34)cc2)nn1Cc1ccccc1 [Example 208, 1-benzyl-5-methyl-N-[4-(4-oxo-3,4-dihydrophthalazin-1-yl)phenyl]-1H-pyrazole-3-carboxamide] | 0.1 to 100 | 0.1 to 100 | – |
| COC(=O)COc1ccc2c(c1)N(C(=O)Cc1ccc(-c3n[nH]c(=O)c4ccccc34)cc1)CC2 [Example 283, methyl 2-[(1-{2-[4-(4-oxo-3,4-dihydrophthalazin-1-yl)phenyl]acetyl}-2,3-dihydro-1H-indol-6-yl)oxy]acetate] | 0.1 to 100 | 0.1 to 100 | – |
| CCn1cncc1C(=O)Nc1ccc(-c2n[nH]c(=O)c3ccccc23)cc1 [Example 233, 1-ethyl-N-[4-(4-oxo-3,4-dihydrophthalazin-1-yl)phenyl]-1H-imidazole-5-carboxamide] | 101 to 1000 | 101 to 1000 | – |
| O=C(Nc1ccc(-c2n[nH]c(=O)c3ccccc23)cc1)c1nc2ccccc2s1 [Example 115, N-[4-(4-oxo-3,4-dihydrophthalazin-1-yl)phenyl]-1,3-benzothiazole-2-carboxamide] | 0.1 to 100 | 0.1 to 100 | – |
| O=C(Nc1ccc(-c2n[nH]c(=O)c3ccccc23)cc1)c1nn(CC2CCOC2)c2cc(F)ccc12 (stereo not drawn) [Example 174, 6-fluoro-N-[4-(4-oxo-3,4-dihydrophthalazin-1-yl)phenyl]-1-(oxolan-3-ylmethyl)-1H-indazole-3-carboxamide] | 0.1 to 100 | 0.1 to 100 | – |
| O=C(Nc1ccc(-c2n[nH]c(=O)c3ccccc23)cc1)c1cnn(CC(O)(C(F)(F)F)C(F)(F)F)c1 [Example 380, N-(4-(4-Oxo-3,4-dihydrophthalazin-1-yl)phenyl)-1-(3,3,3-trifluoro-2-hydroxy-2-(trifluoromethyl)propyl)-1H-pyrazole-4-carboxamide] | 0.1 to 100 | 101 to 1000 | – |
| O=C(Nc1ccc(-c2n[nH]c(=O)c3ccccc23)cc1)c1cnn(C2CCOCC2)c1 [Example 384, N-(4-(4-Oxo-3,4-dihydrophthalazin-1-yl)phenyl)-1-(tetrahydro-2H-pyran-4-yl)-1H-pyrazole-4-carboxamide] | 0.1 to 100 | 101 to 1000 | – |
| COc1ccc2c(-c3ccc(NC(=O)c4cn5ccccc5n4)cc3)n[nH]c(=O)c2c1 [Example 370, N-(4-(6-Methoxy-4-oxo-3,4-dihydrophthalazin-1-yl)phenyl)imidazo[1,2-a]pyridine-2-carboxamide] | 0.1 to 100 | 1000 to 50000 | – |

| Structure (SMILES) | IC50 (ROCK2) [nM] | IC50 (ROCK1) [nM] | IC50 (ROCK2; given as number) [nM] |
| --- | --- | --- | --- |
| O=C(Nc1ccc(-c2n[nH]c(=O)c3ccccc23)cc1)c1nn(CC2CCOC2)c2ccccc12 (stereo not drawn) [Example 146, N-[4-(4-oxo-3,4-dihydrophthalazin-1-yl)phenyl]-1-(oxolan-3-ylmethyl)-1H-indazole-3-carboxamide] | 0.1 to 100 | 0.1 to 100 | – |
| O=C(Nc1ccc(-c2n[nH]c(=O)c3ccccc23)cc1)c1ncc(-c2ccncc2)s1 [Example 47, N-[4-(4-oxo-3,4-dihydrophthalazin-1-yl)phenyl]-5-(pyridin-4-yl)-1,3-thiazole-2-carboxamide] | 0.1 to 100 | 101 to 1000 | – |
| Cn1c(C(=O)Nc2ccc(-c3n[nH]c(=O)c4ccccc34)cc2)cc2cc(Cl)ccc21 [Example 96, 5-chloro-1-methyl-N-[4-(4-oxo-3,4-dihydrophthalazin-1-yl)phenyl]-1H-indole-2-carboxamide] | 0.1 to 100 | 101 to 1000 | – |
| COc1cccc2cc(C(=O)Nc3ccc(-c4n[nH]c(=O)c5ccccc45)c(C)c3)[nH]c12 [Example 309, 7-methoxy-N-[3-methyl-4-(4-oxo-3,4-dihydrophthalazin-1-yl)phenyl]-1H-indole-2-carboxamide] | 0.1 to 100 | 0.1 to 100 | – |
| O=C(Nc1ccc(-c2n[nH]c(=O)c3ccccc23)c(CO)c1)c1nn(CC2CCOC2)c2cc(F)ccc12 (stereo not drawn) [Example 368, 6-Fluoro-N-(3-(hydroxymethyl)-4-(4-oxo-3,4-dihydrophthalazin-1-yl)phenyl)-1-((tetrahydrofuran-3-yl)methyl)-1H-indazole-3-carboxamide] | 0.1 to 100 | 1000 to 50000 | – |
| Cn1nc(C(=O)Nc2ccc(-c3n[nH]c(=O)c4ccccc34)cc2)c2ccccc21 [Example 98, 1-methyl-N-[4-(4-oxo-3,4-dihydrophthalazin-1-yl)phenyl]-1H-indazole-3-carboxamide] | 0.1 to 100 | 0.1 to 100 | – |
| Cc1nn(-c2cccc(Cl)c2Cl)nc1C(=O)Nc1ccc(-c2n[nH]c(=O)c3ccccc23)cc1 [Example 238, 2-(2,3-dichlorophenyl)-5-methyl-N-[4-(4-oxo-3,4-dihydrophthalazin-1-yl)phenyl]-2H-1,2,3-triazole-4-carboxamide] | 0.1 to 100 | 101 to 1000 | – |
| O=C(Nc1ccc(-c2n[nH]c(=O)c3ccccc23)cc1)c1ccc(N2CCOCC2)cc1 [Example 63, 4-(morpholin-4-yl)-N-[4-(4-oxo-3,4-dihydrophthalazin-1-yl)phenyl]benzamide] | 0.1 to 100 | 101 to 1000 | – |
| O=c1[nH]nc(-c2ccc(Nc3nncc4ccccc34)cc2)c2ccccc12 [Example 85, 4-(4-(Phthalazin-1-ylamino)phenyl)phthalazin-1(2H)-one] | 0.1 to 100 | 0.1 to 100 | – |
| Cc1cc(NC(=O)c2nn(CC3(C)COC3)c3ccccc23)ccc1-c1n[nH]c(=O)c2ccccc12 [Example 314, N-[3-methyl-4-(4-oxo-3,4-dihydrophthalazin-1-yl)phenyl]-1-[(3-methyloxetan-3-yl)methyl]-1H-indazole-3-carboxamide] | 0.1 to 100 | 0.1 to 100 | – |
| Cc1cc(C(=O)Nc2ccc(-c3n[nH]c(=O)c4ccccc34)cc2)nn1C [Example 205, 1,5-dimethyl-N-[4-(4-oxo-3,4-dihydrophthalazin-1-yl)phenyl]-1H-pyrazole-3-carboxamide] | 0.1 to 100 | 101 to 1000 | – |
| O=C(Cc1ccc(-c2n[nH]c(=O)c3ccccc23)cc1)Nc1nc2ccccc2[nH]1 [Example 9, N-(1H-1,3-benzodiazol-2-yl)-2-[4-(4-oxo-3,4-dihydrophthalazin-1-yl)phenyl]acetamide] | 0.1 to 100 | 1000 to 50000 | – |
| O=C(Nc1ccc(-c2n[nH]c(=O)c3ccccc23)cc1)c1nn(CCO)c2ccccc12 [Example 155, 1-(2-hydroxyethyl)-N-[4-(4-oxo-3,4-dihydrophthalazin-1-yl)phenyl]-1H-indazole-3-carboxamide] | 0.1 to 100 | 0.1 to 100 | – |
| O=C(Nc1ccc(-c2n[nH]c(=O)c3ccccc23)c(CO)c1)c1cnc2ccccn12 [Example 365, N-(3-(Hydroxymethyl)-4-(4-oxo-3,4-dihydrophthalazin-1-yl)phenyl)imidazo[1,2-a]pyridine-3-carboxamide] | – | 1000 to 50000 | 222 |
| Cc1ccc2[nH]c(C(=O)Nc3ccc(-c4n[nH]c(=O)c5ccccc45)cc3)cc2c1 [Example 101, 5-methyl-N-[4-(4-oxo-3,4-dihydrophthalazin-1-yl)phenyl]-1H-indole-2-carboxamide] | 0.1 to 100 | 0.1 to 100 | – |
| COc1ccc2[nH]c(C(=O)Nc3ccc(-c4n[nH]c(=O)c5ccccc45)cc3)cc2c1 [Example 125, 5-methoxy-N-[4-(4-oxo-3,4-dihydrophthalazin-1-yl)phenyl]-1H-indole-2-carboxamide] | 0.1 to 100 | 0.1 to 100 | – |

— patent US9926282B2, “Phthalazinones and isoquinolinones as rock inhibitors” (BRISTOL-MYERS SQUIBB COMPANY, priority 2013, dated 2018)
